Laboratory results reported in patent publication US20250091995A1, “STABLE CRYSTAL OF 4-OXOQUINOLINE COMPOUND” (Japan Tobacco Inc., priority 2004, published 2025).
Converted amounts (≈) assume the structure as drawn.

Key:
Type in all cases: physicochemical
[1] = Stability test under preservation conditions (appearance, HPLC purity, XRD, DSC); settings: for Stability under various preservation conditions (overall evaluation): all preservation conditions; for Purity: HPLC
Description: A sample was fixed to an aluminum cell, and the measurement was performed using an X-ray powder diffractometer (RINT 2000/PC Ultima^+, manufactured by Rigaku Corporation, X-ray source: Cu-Kα1 ray, tube voltage: 40 kV, tube electric current: […], scan speed: 5° per min, step width: 0.02°, diffraction angle: 5-40°), based on which the diffraction patterns were obtained. Crystal form I and crystal form II were subjected to measurement using a Differential Scanning Calorimetry (DSC) measurement apparatus (DSC8240, manufactured by Rigaku Corporation), under atmosphere, measurement sample 5±1 mg, temperature rise rate: 10° C./min, aluminum open pan, and alumina oxide as a reference. The enthalpy and extrapolated onset temperature at an endothermic peak on the obtained DSC curve were determined. Crystal form III was subjected to measurement using a DSC measurement apparatus (DSC8240, manufactured by Rigaku Corporation), under atmosphere, measurement sample 5.0+0.5 mg, temperature rise rate: 5° C./min, aluminum closed pan, and alumina oxide as a reference. The enthalpy and extrapolated onset temperature at an endothermic peak on the obtained DSC curve were determined. Each sample (crystal form I and crystal form II, ca. 10 mg) was dissolved in acetonitrile to make an amount of 10 mL and used as a sample solution. This solution ([…]) was applied to high performance liquid chromatography (HPLC) under the following conditions. The peak area of each sample solution was measured by automatic integration, and the purity was determined by the following formula. The purity is shown in the Tables 5 and 6 below. • Detector: UV absorptiometer (wavelength: 259 nm) • Column: CAPCELL PAK MG (inner diameter […], length 15 cm, particle size 5 μm, manufactured by Shiseido Co., Ltd. • Column temperature: constant temperature around 40° C. • Mobile phase A: trifluoroacetic acid solution (1:1000) • Mobile phase B: solution of trifluoroacetic acid in acetonitrile (1:1000) • Gradient program: As shown in the following Table 2, the mixing ratio of mobile phase A and mobile phase B is changed to control concentration gradient. A sample (crystal form III, ca. 50 mg) was dissolved in a mixture (4:1) of mobile phase B and mobile phase A to make an amount of 50 mL, which was used as a sample solution. This solution (1 mL) was precisely measured and a mixture (4:1) of mobile phase B and mobile phase A was added to precisely make an amount of 100 mL, which was used as a standard solution. The sample solution and standard solution ([…]) was applied to high performance liquid chromatography (HPLC) under the following conditions. The peak area of each solution was measured by automatic integration, and the purity was determined by the following formula. The purity is shown in the Table 7 below. • Detector: UV absorptiometer (wavelength: 259 nm) • Column: Waters XTerra MC C18 ([…], manufactured by Waters) • Column temperature: constant temperature around 40° C. • Mobile phase A: phosphoric acid is added to dipotassium hydrogenphosphate solution (1>1149) to adjust pH to 7.0 • Mobile phase B: acetonitrile • Gradient program: As shown in the following Table 3, the mixing ratio of mobile phase A and mobile phase B is changed to control concentration gradient. A stability test of each sample was performed under the following preservation conditions. The results of crystal form I are shown in Table 5, the results of crystal form II are shown in Table 6, and the results of crystal form III are shown in Table 7.

[2] = Thermal analysis (DSC): enthalpy and extrapolated onset temperature at endothermic peak; settings: for Endothermic peak Enthalpy / Endothermic peak Extrapolated onset temperature: crystal forms I and II 10° C./min, aluminum open pan, crystal form III 5° C./min, aluminum closed pan
From the text: This test aims at the measurement of the enthalpy and extrapolated onset temperature at an endothermic peak on the Differential Scanning Calorimetry (DSC) measurement curve. These values are among the indices of the stability of the above-mentioned crystal form I, crystal form II and crystal form III, and can be used as an index to specify the crystal form. Crystal form I and crystal form II were subjected to measurement using a Differential Scanning Calorimetry (DSC) measurement apparatus (DSC8240, manufactured by Rigaku Corporation), under atmosphere, measurement sample 5±1 mg, temperature rise rate: 10° C./min, aluminum open pan, and alumina oxide as a reference. The enthalpy and extrapolated onset temperature at an endothermic peak on the obtained DSC curve were determined. Crystal form III was subjected to measurement using a DSC measurement apparatus (DSC8240, manufactured by Rigaku Corporation), under atmosphere, measurement sample 5.0+0.5 mg, temperature rise rate: 5° C./min, aluminum closed pan, and alumina oxide as a reference. The enthalpy and extrapolated onset temperature at an endothermic peak on the obtained DSC curve were determined.

[3] = Solubility test in various test solutions and pHs
Description: This test aims at measurement of solubility of the crystal in various test solutions and under various pHs. The solubility is one of the indices of the stability of the above-mentioned crystal form I, crystal form II and crystal form III and can be used also as a reference indices of absorbability of crystal form by living organisms. Each sample (crystal form I type I, crystal form II and crystal form III, ca. 10 mg) was placed in a 10 mL centrifuge tube together with the following test solution (5 mL) and shaken with a shaker (SR-1M; manufactured by […] Co., Ltd.) for 14 hours. After shaking, the mixture was centrifuged (3000 rpm, 20 min) and the supernatant was filtered through 0.2 μm pore size-13 mm diameter polytetrafluoroethylene disk filter (Millex-LG; manufactured by Millipore Corporation). The measurement was performed by high performance liquid chromatography (HPLC).

[4] = condition 2: 80° C., closed container, preserved for 3 days
[5] = condition 3: 80° C., open container, preserved for 3 days
[6] = condition 4: 60° C., closed container, preserved for 3 weeks
[7] = condition 5: 60° C., open container, preserved for 3 weeks
[8] = condition 6: 60° C./75% R.H., open container, preserved for 3 weeks
[9] = Japanese Pharmacopoeia 1st fluid, pH 1.2, shaken 14 hours
[10] = Japanese Pharmacopoeia 2nd fluid, pH 6.8, shaken 14 hours
[11] = McIlvaine buffer pH 2.2, shaken 14 hours
[12] = McIlvaine buffer pH 4, shaken 14 hours
[13] = McIlvaine buffer pH 5, shaken 14 hours
[14] = McIlvaine buffer pH 6.8, shaken 14 hours
[15] = McIlvaine buffer pH 8, shaken 14 hours
[16] = Purified water, shaken 14 hours
[17] = condition 6: 60° C./75% R.H., closed container, preserved for 3 weeks

Compound | Stability under various preservation conditions (overall evaluation) [1] | Purity ([1]; condition 1: Initial) [%] | Appearance [1, 4] | XRD (X-ray powder diffraction pattern vs initial) [1, 4] | Purity [1, 4] [%] | Appearance [1, 5] | XRD (X-ray powder diffraction pattern vs initial) [1, 5] | Purity [1, 5] [%] | Appearance [1, 6] | XRD (X-ray powder diffraction pattern vs initial) [1, 6] | Purity [1, 6] [%] | Appearance [1, 7] | XRD (X-ray powder diffraction pattern vs initial) [1, 7] | Purity [1, 7] [%] | Appearance [1, 8] | XRD (X-ray powder diffraction pattern vs initial) [1, 8] | Purity [1, 8] [%] | Endothermic peak Enthalpy [2] [J/g] | Endothermic peak Extrapolated onset temperature [2] [°C] | Solubility [3, 9] [µg/mL] | further results
COc1cc2c(cc1Cc1cccc(Cl)c1F)c(=O)c(C(=O)O)cn2[C@H](CO)C(C)C [Crystal form I, 6-(3-chloro-2-fluorobenzyl)-1-[(S)-1-hydroxymethyl-2-methylpropyl]-7-methoxy-4-oxo-1,4-dihydroquinoline-3-carboxylic acid] | unstable | 99.1 | No change | No change | 99.1 | No change | a part of the sample showed crystal transition to crystal form II | 99.1 | No change | No change | 99.1 | No change | a part of the sample showed crystal transition to crystal form II | 99.1 | No change | No change | 99.1 | 51.080 | 150.3 |  | 
COc1cc2c(cc1Cc1cccc(Cl)c1F)c(=O)c(C(=O)O)cn2[C@H](CO)C(C)C [Crystal form II, 6-(3-chloro-2-fluorobenzyl)-1-[(S)-1-hydroxymethyl-2-methylpropyl]-7-methoxy-4-oxo-1,4-dihydroquinoline-3-carboxylic acid] | extremely stable | 98.9 | No change | No change | 98.9 | No change | No change | 98.8 | No change | No change | 98.9 | No change | No change | 98.8 | No change | No change | 98.9 | 53.542 | 151.2 | 0.9 (≈ 2.01 µM) | Solubility [3, 10]: 5.8 µg/mL (≈ 12.9 µM); Solubility [3, 11]: 1.9 µg/mL (≈ 4.24 µM); Solubility [3, 12]: 0.8 µg/mL (≈ 1.79 µM); Solubility [3, 13]: 0.4 µg/mL (≈ 0.893 µM); Solubility [3, 14]: 6.3 µg/mL (≈ 14.1 µM); Solubility [3, 15]: 84 µg/mL (≈ 188 µM); solubility at 14 h ([3]; McIlvaine buffer, pH 6, aqueous buffer, thermodynamic from solid, McIlvaine buffer pH 6, shaken 14 hours): 1 µg/mL (≈ 2.23 µM); Solubility [3, 16]: 0.5 µg/mL (≈ 1.12 µM); Solubility compared between crystal forms ([3]; all test solutions of Table 4): higher solubility than crystal form III
COc1cc2c(cc1Cc1cccc(Cl)c1F)c(=O)c(C(=O)O)cn2[C@H](CO)C(C)C [Crystal form III, 6-(3-chloro-2-fluorobenzyl)-1-[(S)-1-hydroxymethyl-2-methylpropyl]-7-methoxy-4-oxo-1,4-dihydroquinoline-3-carboxylic acid] | extremely stable | 98.71 | No change | No change | 98.68 | No change | No change | 98.69 | No change | No change | 98.67 | No change | No change | 98.66 |  |  |  | 81.404 | 162.1 | <0.1 | Solubility [3, 10]: 2.4 µg/mL (≈ 5.36 µM); Solubility [3, 11]: <0.1 µg/mL; Solubility [3, 12]: <0.1 µg/mL; Solubility [3, 13]: <0.1 µg/mL; Solubility ([3]; McIlvaine buffer pH 6, shaken 14 hours): 0.7 µg/mL (≈ 1.56 µM); Solubility [3, 14]: 0.7 µg/mL (≈ 1.56 µM); Solubility [3, 15]: 23 µg/mL (≈ 51.4 µM); Solubility [3, 16]: <0.1 µg/mL; Appearance [1, 17]: No change; XRD (X-ray powder diffraction pattern vs initial) [1, 17]: No change; Purity [1, 17]: 98.65%; Stability among three crystal forms judged from enthalpy and extrapolated onset temperature [2]: most stable form
